Test results: PubChem BioAssay AID2060886 (Molecular Pharmacology Branch, DTP, NCI, 2025)

Tested on: 653999-131-R-J2-PDC complex spheroids, growth inhibition
Test: Anticancer human tumor 653999-131-R-J2-PDC patient-derived lung adenocarcinoma cell line growth inhibition [RAS]
Settings: for IC50: curve of first compound; for viability, T/C: stronger effect = lower value
Outline: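 Multi-cell-type spheroids: tumor cells plus HUVEC endothelial cells and mesenchymal stem cells. RAS-pathway inhibitors were combined with targeted agents, each dosed in half-log steps down from clinical Cmax, or from 10 microM when Cmax was unknown.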

[1] = second compound 0.00316 µM, first compound 0.0316 µM
[2] = second compound 0.00316 µM, first compound 0.1 µM
[3] = second compound 0.01 µM, first compound 0.0316 µM
[4] = second compound 0.01 µM, first compound 0.1 µM
[5] = second compound 0.0316 µM, first compound 0.0316 µM
[6] = second compound 0.0316 µM, first compound 0.1 µM
[7] = second compound 0.1 µM, first compound 0.0316 µM
[8] = second compound 0.1 µM, first compound 0.1 µM
[9] = second compound 0.316 µM, first compound 0.0316 µM
[10] = second compound 0.316 µM, first compound 0.1 µM
[11] = second compound 1 µM, first compound 0.0316 µM
[12] = second compound 1 µM, first compound 0.1 µM
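Also: spheroids exposed to the agents for seven days before the readout.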

CC(C)NCC(C(=O)N1CCN(c2ncnc3c2C(C)CC3O)CC1)c1ccc(Cl)cc1 (centres undefined) + C=CC(=O)N1CCN(c2nc(OCC3CCCN3C)nc3c(F)c(-c4nc(N)cc(C)c4C(F)(F)F)c(Cl)cc23)C(C)C1 showed an IC50 (second compound 0.00316 µM) of 1310 nM, an IC50 (second compound 0.01 µM) of 1960 nM and an IC50 (second compound 0.0316 µM) of 1410 nM. The IC50 (second compound 0.1 µM) was 1540 nM, the IC50 (second compound 0.316 µM) was 1500 nM and the IC50 (second compound 1 µM) was 927 nM. For the same molecule, the viability, T/C [1] was 116%, the viability, T/C [2] was 104% and the viability, T/C (second compound 0.00316 µM, first compound 0.316 µM) was 96.6%. For the same molecule, the viability, T/C (second compound 0.00316 µM, first compound 1 µM) was 52%, the viability, T/C (second compound 0.00316 µM, first compound 3.16 µM) was 41.7% and the viability, T/C (second compound 0.00316 µM, first compound 10 µM) was 40.8%. It also gave a viability, T/C [3] of 89.6%, a viability, T/C [4] of 100% and a viability, T/C (second compound 0.01 µM, first compound 0.316 µM) of 69.1%. It also gave a viability, T/C (second compound 0.01 µM, first compound 1 µM) of 61.1%, a viability, T/C (second compound 0.01 µM, first compound 3.16 µM) of 44.2% and a viability, T/C (second compound 0.01 µM, first compound 10 µM) of 40.9%. It also gave a viability, T/C [5] of 98.6%, a viability, T/C [6] of 97.3% and a viability, T/C (second compound 0.0316 µM, first compound 0.316 µM) of 73.9%. The viability, T/C (second compound 0.0316 µM, first compound 1 µM) was 54%, the viability, T/C (second compound 0.0316 µM, first compound 3.16 µM) was 43.6% and the viability, T/C (second compound 0.0316 µM, first compound 10 µM) was 35.5%. The viability, T/C [7] was 104%, the viability, T/C [8] was 95.1% and the viability, T/C (second compound 0.1 µM, first compound 0.316 µM) was 76.2%. It also gave a viability, T/C (second compound 0.1 µM, first compound 1 µM) of 52.9%, a viability, T/C (second compound 0.1 µM, first compound 3.16 µM) of 45.1% and a viability, T/C (second compound 0.1 µM, first compound 10 µM) of 37.7%. It also gave a viability, T/C [9] of 90.2%, a viability, T/C [10] of 95.9% and a viability, T/C (second compound 0.316 µM, first compound 0.316 µM) of 82.6%. The viability, T/C (second compound 0.316 µM, first compound 1 µM) was 53.8%, the viability, T/C (second compound 0.316 µM, first compound 3.16 µM) was 44.8% and the viability, T/C (second compound 0.316 µM, first compound 10 µM) was 39.6%. For the same molecule, the viability, T/C [11] was 98.9%, the viability, T/C [12] was 87.7% and the viability, T/C (second compound 1 µM, first compound 0.316 µM) was 81.5%. For the same molecule, the viability, T/C (second compound 1 µM, first compound 1 µM) was 46.9%, the viability, T/C (second compound 1 µM, first compound 3.16 µM) was 43.5% and the viability, T/C (second compound 1 µM, first compound 10 µM) was 41.1%.

CC(C)n1nc(-c2ccc3oc(N)nc3c2)c2c(N)ncnc21 + C=CC(=O)N1CCN(c2nc(OCC3CCCN3C)nc3c(F)c(-c4nc(N)cc(C)c4C(F)(F)F)c(Cl)cc23)C(C)C1 showed an IC50 (second compound 0.00316 µM) of 14.2 nM, an IC50 (second compound 0.01 µM) of 9.4 nM and an IC50 (second compound 0.0316 µM) of 16.4 nM. For the same molecule, the IC50 (second compound 0.1 µM) was 12.4 nM, the IC50 (second compound 0.316 µM) was 11.7 nM and the IC50 (second compound 1 µM) was 15.9 nM. For the same molecule, the viability, T/C (second compound 0.00316 µM, first compound 0.000316 µM) was 98.1%, the viability, T/C (second compound 0.00316 µM, first compound 0.001 µM) was 78.4% and the viability, T/C (second compound 0.00316 µM, first compound 0.00316 µM) was 73.5%. It also gave a viability, T/C (second compound 0.00316 µM, first compound 0.01 µM) of 52.5%, a viability, T/C [1] of 41.5% and a viability, T/C [2] of 22.6%. The viability, T/C (second compound 0.01 µM, first compound 0.000316 µM) was 83.8%, the viability, T/C (second compound 0.01 µM, first compound 0.001 µM) was 97.3% and the viability, T/C (second compound 0.01 µM, first compound 0.00316 µM) was 68.8%. It also gave a viability, T/C (second compound 0.01 µM, first compound 0.01 µM) of 50.5%, a viability, T/C [3] of 35% and a viability, T/C [4] of 29.1%. For the same molecule, the viability, T/C (second compound 0.0316 µM, first compound 0.000316 µM) was 101%, the viability, T/C (second compound 0.0316 µM, first compound 0.001 µM) was 91.3% and the viability, T/C (second compound 0.0316 µM, first compound 0.00316 µM) was 71.8%. For the same molecule, the viability, T/C (second compound 0.0316 µM, first compound 0.01 µM) was 58.1%, the viability, T/C [5] was 40.6% and the viability, T/C [6] was 25%. It also gave a viability, T/C (second compound 0.1 µM, first compound 0.000316 µM) of 77.6%, a viability, T/C (second compound 0.1 µM, first compound 0.001 µM) of 74.6% and a viability, T/C (second compound 0.1 µM, first compound 0.00316 µM) of 70.7%. The viability, T/C (second compound 0.1 µM, first compound 0.01 µM) was 55.2%, the viability, T/C [7] was 30.4% and the viability, T/C [8] was 26.3%. The viability, T/C (second compound 0.316 µM, first compound 0.000316 µM) was 92.8%, the viability, T/C (second compound 0.316 µM, first compound 0.001 µM) was 82% and the viability, T/C (second compound 0.316 µM, first compound 0.00316 µM) was 66.3%. It also gave a viability, T/C (second compound 0.316 µM, first compound 0.01 µM) of 51.1%, a viability, T/C [9] of 39.7% and a viability, T/C [10] of 27.8%. The viability, T/C (second compound 1 µM, first compound 0.000316 µM) was 90.9%, the viability, T/C (second compound 1 µM, first compound 0.001 µM) was 91.8% and the viability, T/C (second compound 1 µM, first compound 0.00316 µM) was 72%. It also gave a viability, T/C (second compound 1 µM, first compound 0.01 µM) of 55.8%, a viability, T/C [11] of 42.1% and a viability, T/C [12] of 26.6%.
